According to article PMC8476755 (Frontiers in Chemistry, 2021):
Read-outs that look alike come from different tables or passages of the source.

How the values were obtained:
Assay type in all cases: cell-based
BGT1 = molecular target: T1, BGT1 (Homo sapiens, UniProt P48065); test: FLIPR membrane potential (FMP) assay, CHO cells stably expressing BGT1; conditions: for Kb: Gaddum-Schild analysis; for Inhibitor activity: in the presence of GABA EC50 concentration ([…] µM); for Substrate activity (translocation by BGT1): tested as substrates, without GABA
T1 construct: expressed in transfected cells
T1 sequence (P48065 1-614): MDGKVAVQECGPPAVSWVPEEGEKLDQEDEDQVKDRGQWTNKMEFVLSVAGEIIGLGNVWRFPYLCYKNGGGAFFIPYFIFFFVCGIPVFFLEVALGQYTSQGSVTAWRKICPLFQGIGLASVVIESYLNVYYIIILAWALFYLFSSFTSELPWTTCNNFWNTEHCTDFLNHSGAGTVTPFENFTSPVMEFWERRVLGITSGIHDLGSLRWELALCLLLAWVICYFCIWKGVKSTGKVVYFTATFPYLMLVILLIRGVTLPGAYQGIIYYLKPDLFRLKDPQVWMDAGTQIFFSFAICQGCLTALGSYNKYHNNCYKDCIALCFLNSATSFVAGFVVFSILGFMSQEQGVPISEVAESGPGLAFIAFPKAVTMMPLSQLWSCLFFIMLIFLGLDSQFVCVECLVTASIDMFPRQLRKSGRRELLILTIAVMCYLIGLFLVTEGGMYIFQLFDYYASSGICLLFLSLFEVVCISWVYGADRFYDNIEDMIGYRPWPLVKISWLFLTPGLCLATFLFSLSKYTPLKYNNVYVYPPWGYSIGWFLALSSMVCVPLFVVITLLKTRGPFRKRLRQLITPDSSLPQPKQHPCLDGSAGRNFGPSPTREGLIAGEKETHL

BGT1 wt = molecular target: T2, BGT1 wt (Homo sapiens, UniProt P48065); test: [3H]GABA uptake assay, transient expression in tsA201 cells; conditions: for IC50: BGT1 wt, tsA201 cells; for Selectivity ratio for BGT1 over GAT3: [3H]GABA uptake IC50 GAT3 wt / BGT1 wt
T2 construct: expressed in transfected cells; host or cells: tsA201 (transformed HEK293), transient
T2 sequence (P48065 1-614): T1 sequence (P48065 1-614)
Source text: (§1) FIGURE 6 (A) Pocket alignment of the orthosteric site of the four GAT subtypes colored according to the default ClustalX color scheme ([Larkin et al., 2007]). The pocket was defined as all corresponding GAT residues (15 in total) that are within a distance of 4.5 Å of the co-crystallized ligand leucine in the homologous LeuT crystal structure (PDB ID 2A65) ([Yamashita et al., 2005]) according to the alignment by Kickinger et al. ([Kickinger et al., 2019]). The mutated residues in BGT1 and the corresponding residues in GAT1-3 are indicated by a red box. The numbering of all residues within the orthosteric pocket can be found in the Supplementary Table S1.
(§2) The tsA201 cell line (a transformed HEK293 cell line), the Flp-In CHO cell lines stably expressing human (h) GATs and the HEK293 cell line stably expressing human α1β2γ2 GABAA receptors have been described previously and were cultured accordingly ([Al-Khawaja et al., 2014]; [Falk-Petersen et al., 2020]). The tsA201 cell line used for transient expression of hGATs was transfected with DNA constructs (8 μg per 10 cm plate) using 40 μL PolyFect transfection reagent according to the manufacturer’s protocol (Qiagen).
(§3) Briefly, cells were seeded in white 96-well plates (White Opaque Tissue Culture (TC) plated 96-well Microplate) pre-coated with PDL. Medium was removed on the following day and cells washed with 100 µL/well assay buffer (HBSS supplemented with 20 mM HEPES, 1 mM CaCl2 and 1 mM MgCl2, pH 7.4). […] The cells were washed 3 times with 100 µL/well ice-cold assay buffer, 150 µL/well MicroScint™20 was subsequently added before the plate was shaken for at least 1 h. The plate was counted in a Packard TopCounter microplate scintillation counter (PerkinElmer) for 3 min per well. […] Data presented is the pooled data of at least three independent experiments with three technical replicates if not stated otherwise in figure legends. Concentration–response curves were fitted by non-linear regression to the sigmoidal concentration-response model with GraphPad Prism (version 9.0.0, GraphPad Software, San Diego, CA, United States) as described ([Lie et al., 2020]).

GAT3 wt = molecular target: T3, GAT3 wt (Homo sapiens, UniProt P48066); test: as above
T3 construct: expressed in transfected cells; host or cells: tsA201 (transformed HEK293), transient
T3 sequence (P48066 1-632): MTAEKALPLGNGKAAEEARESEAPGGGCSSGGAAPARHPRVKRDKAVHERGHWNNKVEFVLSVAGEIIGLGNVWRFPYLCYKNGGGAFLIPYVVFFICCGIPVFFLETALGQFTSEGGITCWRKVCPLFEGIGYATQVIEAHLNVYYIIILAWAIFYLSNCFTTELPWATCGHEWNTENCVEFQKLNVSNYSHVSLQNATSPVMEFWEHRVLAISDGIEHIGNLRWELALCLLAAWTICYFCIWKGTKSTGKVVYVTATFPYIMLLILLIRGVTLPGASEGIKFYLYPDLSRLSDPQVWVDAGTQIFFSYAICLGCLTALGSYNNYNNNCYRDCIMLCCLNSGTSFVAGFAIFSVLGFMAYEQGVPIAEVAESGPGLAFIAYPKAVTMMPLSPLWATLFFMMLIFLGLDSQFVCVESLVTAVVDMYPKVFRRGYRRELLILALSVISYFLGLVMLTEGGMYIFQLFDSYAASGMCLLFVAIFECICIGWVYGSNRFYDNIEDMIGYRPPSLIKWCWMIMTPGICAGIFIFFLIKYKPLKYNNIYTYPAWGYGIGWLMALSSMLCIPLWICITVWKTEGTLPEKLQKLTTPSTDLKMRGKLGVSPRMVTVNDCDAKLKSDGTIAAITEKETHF
Source text: as §1, §2, §3

Kb (BGT1; n = 4, read-out: KB) [nM]	Kb (BGT1; read-out: pKB (converted)) [nM]	Preference for BGT1 over α1β2γ2 GABAA receptors (BGT1; according to the FMP data) [times]	Schild slope (Gaddum-Schild analysis) (BGT1; co-applied with increasing concentrations of GABA, n = 4)	Inhibitor activity (BGT1)	Substrate activity (translocation by BGT1) (BGT1)	IC50 (BGT1 wt; 30 nM [3H]GABA, read-out: IC50) [nM]	IC50 (BGT1 wt; read-out: pIC50 ± S.E.M. (converted)) [nM]	Selectivity ratio for BGT1 over GAT3 (BGT1 wt)	IC50 (GAT3 wt) [nM]	SMILES
470	398	13	1.02	behaved as inhibitors	no increase in fluorescence signals	1500	1260	407	610000	N[C@@]12CC[C@H](C(=O)O)[C@@H]1C2 [bicyclo-GABA, (1S,2S,5R)-5-aminobicyclo[3.1.0]hexane-2-carboxylic acid]
–	–	–	–	behaved as inhibitors	no increase in fluorescence signals	9800	–	22	211000	CN[C@@]12CC[C@H](C(=O)O)[C@@H]1C2 [compound 2]
